Measurements as given in US10287530B2, “Surfactants based on monounsaturated fatty alcohol derivatives” (priority 2013, dated 2019).
Where two headings read alike, the source gives them in different places.

Legend:
[1] = Interfacial tension (IFT) against light mineral oil, synergy study with cationic surfactant; format: physicochemical
Procedure: (§1) The surfactant blends tested are prepared at a 1:1 molar ratio without any pH adjustment. Dilutions are made using deionized water to the desired actives level. Actives amounts are wt. % unless indicated otherwise. Appearances are reported at ambient temperature for samples prepared within the last 24 h.
Interfacial tension (IFT) of all the individual components and their blends is measured at 0.1 wt. % active against light mineral oil at ambient temperature using a Kruss DSA-20 pendent drop tensiometer. The drop is blown out at 600 μL/min., and a video is recorded for 100 s. The video frames taken during the last 15 s are analyzed and used for the IFT calculation.
For blends having an IFT less than 0.5 mN/m, the IFT is determined using a spinning drop tensiometer (University of Texas 500) at 25° C. Oil density=0.877 g/cm^3 and surfactant density=0.997 g/cm^3 are used for the IFT calculation.
The expected IFT for a blend is calculated based on ideal mixing (non-synergistic) using the active component in each blend. The equation used is given as: Expected IFT=X*IFTa+(1−X)*IFTb where X is the actives % of component A, IFTa is the IFT of component A, and IFTb is the IFT of component B. If the measured IFT for a blend is less than the expected IFT, then the blend is synergistic. If the measured IFT for a blend is higher than the expected IFT, the system is antagonistic.

[2] = Appearance and solubility of surfactants and of 1:1 molar blends with cationic surfactant; format: physicochemical
Procedure: as §1

[3] = tested on: zein, yellow corn (maize) protein; conditions: average of three runs
Procedure: The zein test is based on solubilization by surfactants of a yellow corn (maize) protein that is normally insoluble in water unless it is denatured. The test gravimetrically determines the amount of zein dissolved by a surfactant solution. The solubility of zein in surfactant solutions correlates well with skin irritation or roughness caused by the surfactant. […] A higher zein number corresponds to a greater degree of irritation.
A 1% actives solution of each test surfactant (120 mL) is prepared. The pH of each solution is adjusted to about 7.0 with dilute aq. sulfuric acid or dilute aq. sodium hydroxide. The surfactant solution is warmed to 45° C. Zein powder (1.50 g) is added to each of three jars. Surfactant (25.0 g of 1% actives solution) is added to each jar, and to one empty jar to be used as a blank. The solutions are mixed using magnetic stirring on a temperature-controlled hotplate at 45° C. for 60 min. Each mixture is then centrifuged (2500 rpm, 15 min.), and undissolved zein powder is isolated by vacuum filtration. The residue is washed with deionized water and dried (55° C., 24 h) to constant weight. The amount of undissolved zein protein is found gravimetrically, and the results from three runs are averaged to give the % of solubilized zein and zein number.

[4] = format: physicochemical; conditions: for Emulsion stability, mL separation, 1 h / Emulsion stability, mL separation, 24 h: 342 ppm water
Procedure: Surfactant candidates for water soluble herbicide applications are examined as a replacement for the anionic, nonionic, or anionic/nonionic blend portion and compared to a known industry adjuvant standard for use in paraquat, a water soluble herbicide concentrate formulation. A standard dilution test is conducted whereby the concentrates are diluted in water to determine if solubility is complete.
A known industry paraquat adjuvant (2.8 g) is added and vigorously mixed for 30 s. Deionized water (8.07 g) is added, and mixing resumes for 30 s. […] The cylinder is stoppered and inverted ten times. Solubility is recorded as complete or incomplete. Cylinders are allowed to stand and the amount (in mL) and type of separation are recorded after 30 min., 1 h, 2 h, and 24 h. Results of the solubility testing appear in Table 4 below.
An eight to ten mole alkyl phenol ethoxylate surfactant (0.7 g) is added and vigorously mixed for 30 s. Test sample (0.7 g) is added and mixing resumes for 30 s. Deionized water (4.03 g) is added, and mixing resumes for 30 s.
Test sample (0.7 g) is added and vigorously mixed for 30 s. Sodium linear alkylbenzene sulfonate (“NaLAS,” 0.7 g) is added and mixing resumes for 30 s. Deionized water (4.03 g) is added, and mixing resumes for 30 s.
Test sample (1.4 g) is added and vigorously mixed for 30 s. Deionized water (4.03 g) is added, and mixing resumes for 30 s.

[5] = Surfactant phase behavior study by cross-polarized microscopy; format: physicochemical; conditions: in deionized water, room temperature (20-22° C.); boundaries are estimates (±5%)
Procedure: Phase behavior is observed using an Olympus BH-2 cross-polarized microscope at 100-400× and room temperature (20° C. to 22° C.). The monounsaturated C11 alcohol derivatives (sulfates, ethoxylate sulfates, and alcohol ethoxylates) are compared with their saturated analogs. Samples are prepared by diluting the most concentrated product gradually with deionized water. When the surfactant concentration approaches a phase transition, the concentration is varied at 2-4% intervals to estimate the phase boundary. The actives level reported in Table 6 for each phase boundary is within ±5% of the true boundary. Samples are loaded between a microscope slide and cover glass and are allowed to equilibrate before observation. Microscopic texture is analyzed and used to determine the phase. For some samples, an AR 2000 rheometer (TA Instruments) is used to measure viscosity at 25° C. to further verify phase behavior.

Undecylenic Alcohol, 3EO Ether Sulfate, Sodium Salt [Unsat. C11 alcohol 3EO Na sulfate]
IFT at 0.1% actives/mineral oil (blend) ([1]; 1:1 molar blend of the anionic with Ammonyx Cetac 30, 0.1% actives, light mineral oil): 0.17 mN/m
Calculated IFT (no synergy) ([1]; expected IFT of the 1:1 molar blend with Ammonyx Cetac 30 by ideal mixing): 2.73 mN/m
Synergy? ([1]; measured versus expected IFT of the 1:1 molar blend with Ammonyx Cetac 30): high
IFT at 0.1% actives (single component) ([1]; single component, 0.1 wt. % active against light mineral oil, ambient temperature): 5.10 mN/m
Solubility [2]: good
Appearance, 1.0% ([2]; 1:1 molar blend of the anionic with Ammonyx Cetac 30, 1.0% actives, ambient temperature): hazy liquid
% solubilized zein ([3]; 1% actives solution, pH about 7.0, 45° C., 60 min): 16.5%
zein number ([3]; relative to 1% actives Stepanol WA-Extra PCK (SLS) control = 100, higher = more irritating): 31.6
Emulsion stability, mL separation, 1 h ([4]; Adjuvant (anionic/nonionic) test sample): 0 mL
Emulsion stability, mL separation, 1 h ([4]; Anionic test sample): 0 mL
Emulsion stability, mL separation, 24 h ([4]; Anionic test sample): 0 mL
Emulsion stability, mL separation, 1 h ([4]; Nonionic test sample): 0.2 mL
Emulsion stability, mL separation, 24 h ([4]; Nonionic test sample): 0.5 mL
Rating ([4]; overall, versus control): good
Estimated Phase Region as a Function of % Actives Level: Isotropic Clear [5]: 0-70 % actives
Estimated Phase Region as a Function of % Actives Level: Solid/gum/paste [5]: 80-100 % actives
Estimated Phase Region as a Function of % Actives Level: Solid/isotropic [5]: 70-80 % actives
